Source: US10004716B2, “Therapeutic/ preventive agent containing coumarin derivative as active ingredient” (NIPPON ZOKI PHARMACEUTICAL CO., LTD., priority 2014, dated 2018)

System: mice where pulmonary fibrosis was induced by bleomycin
Assay: Lung wet weight increase of mice where pulmonary fibrosis was induced by bleomycin
Type: in vivo
Conditions: ICR male mice, bleomycin 2 mg/kg i.v. 5 days; test substance 50 mg/kg or pirfenidone 200 mg/kg per os twice daily for 2 weeks; normal control 205, diseased control 303
Procedure: Bleomycin (2 mg/kg) was repeatedly injected intravenously for 5 days to ICR male mice. The mice were organized into 4 groups of normal control group, diseased control group, test substance-administered group and pirfenidone-administered group.
A test substance was suspended in 0.5 w/v % carboxymethyl cellulose sodium (CMC) and 50 mg/kg thereof was repeatedly administered per os with stirring twice daily for 2 weeks using an oral sonde for rats. Pirfenidone was suspended in 0.5 w/v % CMC and 200 mg/kg thereof was repeatedly administered per os with stirring twice daily for 2 weeks using an oral sonde for rats. To the normal control group and the diseased control group, 0.5 w/v % CMC was repeatedly administered per os according to the same administration schedule. After finishing the administration period, both lungs were excised from the mice and their wet weight was measured.

Question: `O=c1oc2c(OS(=O)(=O)c3cccc(Br)c3)cccc2cc1NS(=O)(=O)c1cccc(C(F)(F)F)c1` [Compound 60, 2-Oxo-3-[[3-(trifluoromethyl)phenyl]sulfonylamino]-chromen-8-yl 3-bromobenzenesulfonate] was tested. Which Wet Lung Weight did it give?
Answer: 250 mg
